# Measurements reported in article PMC6195743, “Renewable production of high density jet fuel precursor sesquiterpenes from Escherichia coli” (Biotechnology for Biofuels, 2018).
# Legend:
# Experiment in all cases: GC-MS of decane overlay from E. coli expressing the synthase
# Format in all cases: cell-based
# [1] = target: T1, pentalenene synthase (PentS; codon-optimized coPentS) (Streptomyces exfoliatus, UniProt Q55012); conditions: product pentalenene (single product); endogenous FPP supply, no FPP added
# T1 construct: gene penA; codon-optimized gene, untagged, plasmids pTrc99a / pBbE7a / prstA, expressed in E. coli DH1; also in S. cerevisiae EPY300
# T1 sequence (Q55012 2-337): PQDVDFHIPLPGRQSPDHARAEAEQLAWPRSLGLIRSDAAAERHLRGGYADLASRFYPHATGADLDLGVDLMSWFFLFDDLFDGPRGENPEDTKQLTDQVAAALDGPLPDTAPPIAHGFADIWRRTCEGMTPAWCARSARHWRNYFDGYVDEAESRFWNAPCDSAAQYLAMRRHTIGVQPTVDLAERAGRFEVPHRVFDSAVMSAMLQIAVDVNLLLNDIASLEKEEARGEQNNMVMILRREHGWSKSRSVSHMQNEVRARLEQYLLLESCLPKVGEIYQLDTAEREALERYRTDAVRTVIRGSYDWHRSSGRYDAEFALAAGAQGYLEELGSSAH
# [2] = target: T2, epi-isozizaene synthase (EIZS; codon-optimized coEIZS) (Streptomyces coelicolor, UniProt Q9K499); conditions: product epi-isozizaene (single product); endogenous FPP supply, no FPP added
# T2 construct: gene cyc1; codon-optimized gene, untagged, plasmids pTrc99a / pBbE7a / prstA, expressed in E. coli DH1
# T2 sequence (Q9K499 1-361): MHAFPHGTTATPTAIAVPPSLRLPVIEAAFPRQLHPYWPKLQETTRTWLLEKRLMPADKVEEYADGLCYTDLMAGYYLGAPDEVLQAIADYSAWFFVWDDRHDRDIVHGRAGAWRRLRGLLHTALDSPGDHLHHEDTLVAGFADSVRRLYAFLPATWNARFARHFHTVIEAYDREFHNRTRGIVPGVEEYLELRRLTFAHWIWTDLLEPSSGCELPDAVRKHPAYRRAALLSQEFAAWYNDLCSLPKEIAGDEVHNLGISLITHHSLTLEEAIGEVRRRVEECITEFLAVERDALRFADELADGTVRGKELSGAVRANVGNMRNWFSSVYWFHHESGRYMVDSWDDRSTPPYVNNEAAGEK
# [3] = target: T3, α-isocomene synthase (MrTPS2; codon-optimized coMrTPS2) (Matricaria chamomilla, UniProt I6R4V5); conditions: main product alpha-isocomene with silphinene, modephene, beta-isocomene, caryophyllene, alpha-humulene; endogenous FPP supply, no FPP added
# T3 construct: codon-optimized gene, untagged, plasmids pTrc99a / pBbE7a / prstA, expressed in E. coli DH1
# T3 sequence (I6R4V5 1-546): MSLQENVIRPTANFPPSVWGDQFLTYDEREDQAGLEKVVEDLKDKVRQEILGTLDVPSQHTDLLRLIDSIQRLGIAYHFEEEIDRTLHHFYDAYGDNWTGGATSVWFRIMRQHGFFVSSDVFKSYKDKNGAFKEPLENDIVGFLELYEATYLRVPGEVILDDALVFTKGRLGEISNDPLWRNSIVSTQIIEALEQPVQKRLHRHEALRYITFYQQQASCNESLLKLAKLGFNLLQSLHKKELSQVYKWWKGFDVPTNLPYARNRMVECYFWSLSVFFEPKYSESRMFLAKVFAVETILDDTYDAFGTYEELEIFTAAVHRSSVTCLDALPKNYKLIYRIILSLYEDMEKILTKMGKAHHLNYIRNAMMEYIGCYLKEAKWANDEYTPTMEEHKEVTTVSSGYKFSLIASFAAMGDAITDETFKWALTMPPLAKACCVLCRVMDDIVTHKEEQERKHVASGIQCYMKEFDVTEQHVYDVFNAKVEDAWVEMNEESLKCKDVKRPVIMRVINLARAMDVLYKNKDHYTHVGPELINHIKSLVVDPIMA
smiles,measurement,setting,value
CC(C)=CCC/C(C)=C/CC/C(C)=C/COP(=O)(O)OP(=O)(O)O [farnesyl diphosphate],GC-MS of decane overlay from E. coli expressing the synthase,[1],cultures expressing coEIZS and coPentS produced single products
same,GC-MS of decane overlay from E. coli expressing the synthase,[2],cultures expressing coEIZS and coPentS produced single products
same,GC-MS of decane overlay from E. coli expressing the synthase,[3],"culture expressing coMrTPS2 produced a broad spectrum of compounds, including α-isocomene"
